Source: patent US11390624B2, “Pyrazolopyridines and triazolopyridines as A2A / A2B inhibitors” (Incyte Corporation, priority 2019, dated 2022)

Columns and labels:
[1] = target: Adenosine A2A receptor (Tag-lite Adenosine A2A labeled cells) (Homo sapiens (Human), UniProt P29274); experiment: A2A Tag-lite HTRF Assay; format: binding; conditions: displacement of Adenosine A2A Receptor Red antagonist fluorescent ligand, 12.5 nM
Text: The final concentration of DMSO was 1%.

[2] = target: human adenosine A2B receptor (Homo sapiens (Human), UniProt P29275); experiment: Adenosine A2B Receptor Cyclic AMP GS Assay; format: cell-based; conditions: HEK-293 cells, agonist NECA at 12 nM, cAMP accumulation; read-out: A2B—cAMP_EC50
human adenosine A2B receptor, sequence (P29275 whole entry): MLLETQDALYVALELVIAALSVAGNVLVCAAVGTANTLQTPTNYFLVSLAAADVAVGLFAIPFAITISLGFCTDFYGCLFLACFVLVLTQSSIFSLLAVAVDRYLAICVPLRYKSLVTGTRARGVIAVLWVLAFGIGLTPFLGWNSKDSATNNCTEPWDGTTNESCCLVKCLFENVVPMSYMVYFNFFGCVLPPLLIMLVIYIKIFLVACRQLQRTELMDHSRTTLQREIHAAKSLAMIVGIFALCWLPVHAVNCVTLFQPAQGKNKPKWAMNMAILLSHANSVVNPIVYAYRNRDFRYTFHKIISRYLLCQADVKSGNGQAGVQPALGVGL
Experimental: Stably transfected HEK-293 cells expressing the human adenosine A2B receptor (Perkin Elmer) were maintained in MEM culture medium with 10% FBS and 100 μg/mL Geneticin (Life Technologies). 18 to 24 hours prior to assay, geneticin was removed from culture. The cisbio cAMP-GS Dynamic kit utilizing the FRET (Fluorescence Resonance Energy Transfer) technology was used to measure cAMP accumulation in the cells. Compounds of the present disclosure at an appropriate concentration were mixed with 10000 cells/well in white 96 well half area plates (Perkin Elmer) for 30 min at room temperature gently shaking. Agonist, NECA (R&D Technologies) at 12 nM was added to each well for 60 min at room temperature gently shaking. Detection reagents, d2-labeled cAMP (acceptor) and anti-cAMP cryptate (donor) were added to each well for 60 min at RT gently shaking. Plates were read on Pherastar (BMG Labtech), fluorescence ratio 665/620 was calculated and EC50 determination was performed by fitting the curve of percent of control versus the log of the compound concentration using GraphPad Prism.

Adenosine A2A receptor (Tag-lite Adenosine A2A labeled cells), sequence (P29274 whole entry): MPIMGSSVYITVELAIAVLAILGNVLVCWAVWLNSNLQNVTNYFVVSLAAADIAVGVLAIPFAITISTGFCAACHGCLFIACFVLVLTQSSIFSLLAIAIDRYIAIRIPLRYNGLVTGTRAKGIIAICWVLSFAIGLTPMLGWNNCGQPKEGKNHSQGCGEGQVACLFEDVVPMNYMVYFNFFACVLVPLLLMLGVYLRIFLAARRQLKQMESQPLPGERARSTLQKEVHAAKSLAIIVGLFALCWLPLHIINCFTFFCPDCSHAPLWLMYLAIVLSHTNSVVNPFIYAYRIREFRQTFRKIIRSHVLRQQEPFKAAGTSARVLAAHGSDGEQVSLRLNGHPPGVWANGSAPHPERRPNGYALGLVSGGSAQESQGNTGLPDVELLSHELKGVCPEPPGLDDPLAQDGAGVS

SMILES	Ki [1]	EC50 [2]
Cc1cccc(Cn2nc3c(N)nc(-c4cccc(C#N)c4)c(-c4ccc(=O)n(C)c4)c3n2)n1 [Example 27, 3-(4-amino-7-(1-methyl-6-oxo-1,6-dihydropyridin-3-yl)-2-((6-methylpyridin-2-yl)methyl)-2H-[1,2,3]triazolo[4,5-c]pyridin-6-yl)benzonitrile]	≤ 10 nM	10 to 100 nM
Cc1ncoc1-c1c(-c2cccc(C#N)c2F)nc(N)c2nn(Cc3ccccn3)nc12 [Example 41, 3-(4-amino-7-(4-methyloxazol-5-yl)-2-(pyridin-2-ylmethyl)-2H-[1,2,3]triazolo[4,5-c]pyridin-6-yl)-2-fluorobenzonitrile]	≤ 10 nM	≤ 10 nM
Cc1nc(CO)c(-c2c(-c3cccc(C#N)c3F)nc(N)c3nn(Cc4ccccn4)nc23)o1 [Example 42, 3-(4-amino-7-(4-(hydroxymethyl)-2-methyloxazol-5-yl)-2-(pyridin-2-ylmethyl)-2H-[1,2,3]triazolo[4,5-c]pyridin-6-yl)-2-fluorobenzonitrile]	≤ 10 nM	10 to 100 nM

Next, values leading:

Ki [1]	EC50 [2]	SMILES
≤ 10 nM	10 to 100 nM	Cn1cc(-c2c(-c3cccc(C#N)c3)nc(N)c3nn(Cc4ncccc4F)nc23)ccc1=O [Example 32, 3-(4-amino-2-((3-fluoropyridin-2-yl)methyl)-7-(1-methyl-6-oxo-1,6-dihydropyridin-3-yl)-2H-[1,2,3]triazolo[4,5-c]pyridin-6-yl)benzonitrile]
≤ 10 nM	10 to 100 nM	Cn1ccc(Cn2cc3c(N)nc(-c4cccc(C#N)c4)c(-c4ccncn4)c3n2)n1 [Example 4, 3-(4-amino-2-((1-methyl-1H-pyrazol-3-yl)methyl)-7-(pyrimidin-4-yl)-2H-pyrazolo[4,3-c]pyridin-6-yl)benzonitrile]
≤ 10 nM	10 to 100 nM	N#Cc1cccc(-c2nc(N)c3cn(Cc4ccccn4)nc3c2-c2ccncn2)c1 [Example 1, 3-(4-amino-2-(pyridin-2-ylmethyl)-7-(pyrimidin-4-yl)-2H-pyrazolo[4,3-c]pyridin-6-yl)benzonitrile]
